Measurements from the supplement of paper PMC10307832.

Key:
[1] = compound: CC1=NN=C(O1)C2=NN=C(C=C2)N3CCC(CC3)OC4=C(C=CC(=C4)F)Cl + COc1cc2c(Oc3ccc(NC(=O)C4(C(=O)Nc5ccc(F)cc5)CC4)cc3F)ccnc2cc1OCCCN1CCOCC1 [Foretinib] (partner 0.25 µM); assay: relative viability (nuclei count vs DMSO), 5 days (fraction); higher = more cells survive
Method in brief: (§1)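 Medians of duplicate plates are given as relative viability. That measure is the nuclei count in treated wells divided by the count in vehicle wells. Counts were taken on 4× images of lung cancer cell lines in 1536-well plates, 5 days after pin-tool dosing the day after seeding with one drug alone or a fixed anchor-drug dose plus five library-drug doses (not always all listed) in √10 steps.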

Tosedostat + Navitoclax = compound: CC(C)C[C@@H](C(=O)N[C@H](C(=O)OC1CCCC1)c1ccccc1)[C@H](O)C(=O)NO [Tosedostat] + CC1(C)CCC(c2ccc(Cl)cc2)=C(CN2CCN(c3ccc(C(=O)NS(=O)(=O)c4ccc(N[C@H](CCN5CCOCC5)CSc5ccccc5)c(S(=O)(=O)C(F)(F)F)c4)cc3)CC2)C1 [Navitoclax] (partner 0.5 µM); assay: as above
Method in brief: as §1

Cell Line | relative viability ([1]; first compound 0.253 µM) | relative viability ([1]; first compound 0.8 µM) | relative viability ([1]; first compound 2.53 µM) | relative viability ([1]; first compound 8 µM) | relative viability (Tosedostat + Navitoclax; first compound 0.02 µM) | relative viability (Tosedostat + Navitoclax; first compound 0.06325 µM) | relative viability (Tosedostat + Navitoclax; first compound 0.2 µM) | relative viability (Tosedostat + Navitoclax; first compound 0.6325 µM) | relative viability (Tosedostat + Navitoclax; first compound 2 µM)
NCI-H2342 | 0.671 | 0.627 | 0.684 | 0.545 | – | – | – | – | –
SK-MES-1 | 0.824 | 0.835 | 0.939 | 0.855 | 1.23 | 1.29 | 1.29 | 1.11 | 1
NCI-H1355 | 0.723 | 0.802 | 0.895 | 0.845 | 0.766 | 0.795 | 1.05 | 0.979 | 0.803
HCC-366 | 0.46 | 0.574 | 0.466 | 0.343 | 1.15 | 1.01 | 1.02 | 1.01 | 1.11
201T | 0.607 | 0.758 | 0.661 | 0.73 | 1.19 | 1.24 | 1.29 | 1.32 | 1.28
HCC-827 | 0.381 | 0.239 | 0.353 | 0.318 | 1.01 | 1.03 | 1.06 | 1.03 | 0.86
PC-14 | 0.806 | 0.779 | 0.768 | 0.759 | 1.03 | 0.999 | 1.04 | 0.994 | 1.06
NCI-H2228 | 0.723 | 0.66 | 0.845 | 0.632 | 1 | 0.856 | 0.781 | 0.961 | 0.793
NCI-H727 | 0.786 | 0.822 | 0.838 | 0.828 | 0.369 | 0.295 | 0.386 | 0.282 | 0.195
NCI-H1650 | – | 0.928 | 0.998 | 0.852 | 1.25 | 1.05 | 1.27 | 1.01 | 0.825
A-427 | 1.02 | – | 0.998 | 0.871 | 0.921 | 0.925 | 0.999 | 1.03 | 0.925
NCI-H650 | 1.01 | 0.959 | 0.911 | 1.06 | – | – | – | – | –
NCI-H1792 | – | – | – | – | 0.63 | 0.839 | 0.651 | 0.652 | 0.567
NCI-H2009 | 0.711 | 0.667 | 0.644 | 0.636 | 1.2 | 1.12 | 1.17 | 1.06 | 1.07
Calu-6 | 0.602 | 0.597 | 0.517 | 0.573 | 0.919 | 0.787 | 0.655 | 0.668 | 0.461
NCI-H1975 | – | 0.929 | 0.834 | 0.757 | 1.06 | 1.14 | 1 | 1.01 | 0.869
LOU-NH91 | 0.896 | 0.847 | 0.927 | 0.9 | 0.753 | 0.657 | 0.615 | 0.543 | 0.483
EMC-BAC-2 | 0.968 | 0.95 | 0.89 | 0.98 | 1.11 | 1.2 | 1.15 | 1.14 | 1.19
LK-2 | 1.11 | 1.05 | 1.45 | 1.5 | 0.905 | 0.855 | 0.788 | 0.909 | 0.976
NCI-H2405 | 0.582 | 0.564 | 0.546 | 0.555 | 1.18 | 0.846 | 0.82 | 0.812 | 0.611
NCI-H520 | 0.653 | – | 0.757 | 0.77 | 1.19 | 1.3 | 1.14 | 1.08 | 1.4

Cell Line | relative viability ([1]; first compound 0.253 µM) | relative viability ([1]; first compound 0.8 µM) | relative viability ([1]; first compound 2.53 µM) | relative viability ([1]; first compound 8 µM) | relative viability (Tosedostat + Navitoclax; first compound 0.02 µM) | relative viability (Tosedostat + Navitoclax; first compound 0.06325 µM) | relative viability (Tosedostat + Navitoclax; first compound 0.2 µM) | relative viability (Tosedostat + Navitoclax; first compound 0.6325 µM) | relative viability (Tosedostat + Navitoclax; first compound 2 µM)
NCI-H2085 | 0.808 | – | 0.744 | 0.698 | 1.04 | 1.06 | 1.09 | 1.05 | 1.08
NCI-H1944 | 0.464 | 0.463 | 0.473 | 0.498 | 1.1 | 0.975 | 1.08 | 1.02 | 1.01
LXF-289 | 0.692 | 0.671 | 0.66 | 0.563 | 0.965 | 0.879 | 0.938 | 0.897 | 0.958
NCI-H596 | 0.71 | 0.751 | 0.837 | 0.682 | 1.01 | 1.06 | 1.01 | 0.996 | 0.805
NCI-H441 | 0.658 | 0.78 | 0.686 | 0.605 | 1.01 | 0.477 | 0.421 | 0.576 | 0.339
NCI-H2126 | 0.982 | 0.932 | 0.958 | 0.985 | 0.801 | 0.876 | 0.894 | 0.852 | 0.721
HCC-15 | 0.538 | 0.476 | 0.405 | 0.446 | 0.772 | 0.729 | 0.684 | 0.659 | 0.57
HCC-44 | – | – | – | – | 0.849 | 0.912 | 0.949 | 0.946 | 0.539
COR-L23 | 0.901 | 0.836 | 0.869 | 0.672 | 1.2 | 1.04 | 1.04 | 0.884 | 0.958
HCC-78 | 0.465 | 0.51 | 0.467 | 0.516 | 0.717 | 0.808 | 0.736 | 0.868 | 0.948
NCI-H1437 | 0.724 | 0.805 | 0.729 | 0.512 | 1.13 | 1.09 | 1.15 | 1.09 | 0.99
SK-LU-1 | 0.698 | – | 0.696 | 0.557 | 0.889 | 0.854 | 0.939 | 0.608 | 0.771
NCI-H2347 | 0.904 | 0.931 | 0.707 | 0.824 | 0.671 | 0.8 | 0.766 | 0.688 | 0.68
BEN | 0.679 | 0.7 | 0.665 | 0.541 | 0.35 | 0.0546 | 0.0614 | 0.0633 | 0.0537
LCLC-103H | 0.579 | 0.596 | 0.494 | 0.582 | – | – | – | – | –
EKVX | 0.41 | 0.382 | 0.382 | 0.36 | 0.962 | 0.969 | 0.898 | 0.944 | 0.804
NCI-H1299 | 1.09 | 1.08 | 1.05 | 1.02 | 1.09 | 1.03 | 1.04 | 1.02 | 0.948
ABC-1 | 0.601 | 0.439 | 0.578 | 0.644 | – | – | – | – | –
PC-3 [JPC-3] | 0.774 | 0.923 | 0.874 | 0.855 | 0.85 | 0.837 | 0.825 | 0.678 | 0.638
NCI-H1703 | – | 0.438 | 0.394 | 0.478 | 0.89 | 0.945 | 0.898 | 0.635 | 0.691
NCI-H23 | 0.981 | – | 0.792 | 0.841 | 0.765 | 0.872 | 0.885 | 0.57 | 0.528

Cell Line | relative viability ([1]; first compound 0.253 µM) | relative viability ([1]; first compound 0.8 µM) | relative viability ([1]; first compound 2.53 µM) | relative viability ([1]; first compound 8 µM) | relative viability (Tosedostat + Navitoclax; first compound 0.02 µM) | relative viability (Tosedostat + Navitoclax; first compound 0.06325 µM) | relative viability (Tosedostat + Navitoclax; first compound 0.2 µM) | relative viability (Tosedostat + Navitoclax; first compound 0.6325 µM) | relative viability (Tosedostat + Navitoclax; first compound 2 µM)
NCI-H1793 | 0.448 | 0.639 | 0.565 | 0.621 | 0.402 | 0.463 | 0.402 | 0.449 | 0.4
LC-2-ad | 0.66 | 0.634 | 0.623 | 0.507 | 0.614 | 0.419 | 0.473 | 0.386 | 0.264
COR-L 105 | 0.994 | 1.06 | 1.12 | 1.08 | 0.673 | 0.624 | 0.707 | 0.722 | 0.512
NCI-H1563 | 0.925 | 0.866 | 0.931 | 0.951 | – | – | – | – | –
H3255 | 0.793 | 0.644 | 0.783 | 0.673 | 0.464 | 0.546 | 0.404 | 0.388 | 0.471
NCI-H2087 | 0.593 | 0.641 | 0.626 | 0.489 | 0.995 | 0.916 | 1 | 0.931 | 0.805
NCI-H1915 | 0.685 | 0.532 | 0.531 | 0.402 | 0.801 | 0.775 | 0.783 | 0.743 | 0.711
HOP-62 | 0.806 | 0.833 | 0.806 | 0.543 | 1.19 | 1 | 1.01 | 1.02 | 0.914
LU99A | 0.826 | 0.868 | 0.836 | 0.742 | 0.813 | 0.869 | 0.774 | 0.832 | 0.683
ChaGo-K-1 | 0.773 | 0.709 | 0.785 | 0.739 | 1.23 | 1.1 | 0.905 | 1.01 | 0.761
NCI-H3122 | 0.431 | 0.409 | 0.438 | 0.397 | 1.05 | 1.05 | 0.996 | 1.05 | 1.03
NCI-H1651 | 0.819 | 0.619 | 0.689 | 0.848 | 1.03 | 0.885 | 1.28 | 1.07 | 1
NCI-H661 | 0.912 | 0.845 | 0.837 | 0.731 | – | – | – | – | –
NCI-H1755 | 0.641 | 0.719 | 0.731 | 0.647 | 1.05 | 1.05 | 1.01 | 0.931 | 0.958
NCI-H1734 | 0.861 | 0.857 | 0.769 | 0.699 | 0.833 | 0.801 | 0.789 | 0.735 | 0.683
NCI-H1993 | 0.664 | 0.682 | 0.709 | 0.7 | 0.895 | 0.877 | 0.817 | 0.747 | 0.603
RERF-LC-KJ | 0.617 | 0.533 | 0.544 | 0.519 | 1.03 | 0.953 | 0.948 | 0.517 | 0.614
HARA | 0.538 | 0.289 | 0.317 | 0.273 | 1.17 | 1.2 | 1.1 | 0.894 | 1.15
NCI-H1623 | 0.717 | 0.669 | 0.771 | 0.781 | – | – | – | – | –
SW 900 | – | – | 0.822 | 0.73 | – | – | – | – | –
NCI-H358 | 0.512 | 0.393 | 0.512 | 0.41 | – | – | – | – | –
